The values below come from patent US20240018161A1, “MODULATORS OF CYSTIC FIBROSIS TRANSMEMBRANE CONDUCTANCE REGULATOR” (VERTEX PHARMACEUTICALS INCORPORATED, priority 2020, published 2024).

Read-outs that look alike come from different tables or passages of the source.

For series [1] the following is noted: 13-membered ring, DMF.
The conditions of series [2]: 13-membered ring, DMF. The source holds these as a separate data set.
Series [3] concerns the target T1, CFTR-mediated chloride transport in human intestinal epithelial enteroid cells (Homo sapiens, UniProt P13569). Briefly: Membrane potential dye, Enteroid Assay B. The format is cell-based. As to conditions: Enteroid Assay B; for EC50: read-out: Ent. B EC50. The method, boiled down: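 Human intestinal enteroid cells were loaded for 25 min at room temperature with methyl oxonol membrane-potential dye plus […] (CaCCinh-A01, Chicago Sky Blue). They were then washed into chloride-free gluconate buffer. Chloride transport was triggered by stimulation solution and fluorescence read for 15 min.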

Series [4] concerns the target T1, CFTR-mediated chloride transport in human intestinal epithelial enteroid cells. The series is described as follows: Membrane potential dye, Enteroid Assay A. It is filed as cell-based. As to conditions: Enteroid Assay A; for EC50: read-out: Ent. A EC50. The method, boiled down: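 Membrane potential dye (20 μM methyl oxonol, with 30 μM CaCCinh-A01 and 30 μM Chicago Sky Blue) loaded 25 min at room temperature into ROCK-inhibitor-seeded human enteroid cells. Chloride-free stimulation buffer triggered transport, followed by 15 min fluorescence. % Activity relative to 3 μM/3 μM/300 nM triple-combination control.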

T1 sequence (P13569 with tags, fused parts or gaps DEL508-508): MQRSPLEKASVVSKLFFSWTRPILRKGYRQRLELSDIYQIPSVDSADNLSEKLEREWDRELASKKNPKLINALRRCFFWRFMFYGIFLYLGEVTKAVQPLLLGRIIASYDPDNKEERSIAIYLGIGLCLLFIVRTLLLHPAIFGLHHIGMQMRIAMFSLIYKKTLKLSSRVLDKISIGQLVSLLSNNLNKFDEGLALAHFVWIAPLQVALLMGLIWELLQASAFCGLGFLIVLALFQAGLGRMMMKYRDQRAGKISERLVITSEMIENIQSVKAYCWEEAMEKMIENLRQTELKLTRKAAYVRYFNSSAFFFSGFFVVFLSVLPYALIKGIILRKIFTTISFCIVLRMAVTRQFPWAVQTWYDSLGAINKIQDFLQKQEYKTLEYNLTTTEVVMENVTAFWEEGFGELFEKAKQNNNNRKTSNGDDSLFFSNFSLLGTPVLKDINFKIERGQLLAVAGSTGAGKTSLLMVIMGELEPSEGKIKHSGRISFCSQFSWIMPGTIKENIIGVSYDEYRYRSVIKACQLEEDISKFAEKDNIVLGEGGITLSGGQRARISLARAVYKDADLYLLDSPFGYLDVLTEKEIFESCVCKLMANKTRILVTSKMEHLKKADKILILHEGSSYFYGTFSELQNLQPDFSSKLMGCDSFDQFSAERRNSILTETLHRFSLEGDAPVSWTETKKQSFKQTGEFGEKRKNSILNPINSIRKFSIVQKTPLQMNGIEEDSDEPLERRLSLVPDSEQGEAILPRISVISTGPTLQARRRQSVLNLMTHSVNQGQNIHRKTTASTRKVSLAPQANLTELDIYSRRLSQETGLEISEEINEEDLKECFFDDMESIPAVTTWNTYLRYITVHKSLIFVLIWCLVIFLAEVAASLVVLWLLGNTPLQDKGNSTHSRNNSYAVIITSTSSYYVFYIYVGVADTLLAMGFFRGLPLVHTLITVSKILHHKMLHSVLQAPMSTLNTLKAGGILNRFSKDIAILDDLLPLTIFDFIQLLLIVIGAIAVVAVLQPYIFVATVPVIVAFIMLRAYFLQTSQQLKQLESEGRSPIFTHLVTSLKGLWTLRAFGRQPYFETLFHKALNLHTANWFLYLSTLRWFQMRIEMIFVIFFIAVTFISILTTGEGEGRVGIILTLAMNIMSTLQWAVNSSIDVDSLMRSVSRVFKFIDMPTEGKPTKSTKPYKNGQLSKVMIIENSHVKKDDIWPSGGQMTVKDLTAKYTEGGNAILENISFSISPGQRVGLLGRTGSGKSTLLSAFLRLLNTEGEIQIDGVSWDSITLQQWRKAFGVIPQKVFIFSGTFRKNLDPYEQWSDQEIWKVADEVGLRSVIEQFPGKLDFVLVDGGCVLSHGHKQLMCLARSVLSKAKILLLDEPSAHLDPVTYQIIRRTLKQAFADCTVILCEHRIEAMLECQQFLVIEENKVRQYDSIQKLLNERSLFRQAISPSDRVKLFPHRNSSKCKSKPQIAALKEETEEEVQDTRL

In the case of `Cc1cccc(C)c1-c1cc2nc(n1)NS(=O)(=O)c1cccc(c1)C(=O)N1C(c3ncc(OC(C)C)cn3)CCCC(CC(C)C)C1CO2` (stereo not shown), in series [1] (from Cc1cccc(C)c1-c1cc(OCC2NC(c3ncc(OC(C)C)cn3)CCCC2CC(C)C)nc(NS(=O)(=O)c2cccc(C(=O)O)c2)n1, amide bond, CDMT/NMM, 14.3 mM, 48.0 h, 2 steps), the ring closure, isolated yield worked out at 41%. The compound also registered a ring closure, yield after HPLC in series [2] (from Cc1cccc(C)c1-c1cc(OCC2NC(c3ncc(OC(C)C)cn3)CCCC2CC(C)C)nc(NS(=O)(=O)c2cccc(C(=O)O)c2)n1, amide bond, CDMT/NMM, 13.7 mM, 48.0 h, 2 steps) of 12%.
On to `Cc1cccc(C)c1-c1cc2nc(n1)NS(=O)(=O)c1cccc(c1)C(=O)N1CCN(Cc3ccccc3)CC(O2)C1CC(C)C` (stereo not shown), for which the ring closure, isolated yield in series [1] (from Cc1cccc(C)c1-c1cc(Cl)nc(NS(=O)(=O)c2cccc(C(=O)N3CCN(Cc4ccccc4)CC(O)C3CC(C)C)c2)n1, snar bond, NaH, 15.6 mM, 25.0 °C, 23.0 h) is 21%. In series [2] (from Cc1cccc(C)c1-c1cc(Cl)nc(NS(=O)(=O)c2cccc(C(=O)N3CCN(Cc4ccccc4)CC(O)C3CC(C)C)c2)n1, snar bond, NaH, 15.2 mM, 25.0 °C, 24.0 h), this compound showed a ring closure, yield after HPLC of 11%.
`Cc1cccc(C)c1-c1cc2nc(n1)NS(=O)(=O)c1cccc(c1)C(=O)N1CCc3cc(C(C)(C)C)ccc3C1CO2` (single isomer, unassigned) [Compound 235, 8-tert-butyl-17-(2,6-dimethylphenyl)-14-oxa-21λ^6-thia-3,18,20,27-tetraazapentacyclo[20.3.1.115,19.03,12.06,11]heptacosa-1(26),6(11),7,9,15(27),16,18,22,24-nonaene-2,21,21-trione]: in series [3], the “Ent. B Max Activity (%)” value is on record as “++ (++ is 30-60%)” and the concentration for a half-maximal effect (EC50) (in general, the concentration that produces a half-maximal response) was below 1 µM. Moreover, in series [1] (from Cc1cccc(C)c1-c1cc(OCC2NCCc3cc(C(C)(C)C)ccc32)nc(NS(=O)(=O)c2cccc(C(=O)O)c2)n1, amide bond, HATU/Et3N, 16.5 mM, 25.0 °C, 16.0 h), the ring closure, isolated yield is 34%.
In the case of `Cc1cccc(C)c1-c1cc2nc(n1)NS(=O)(=O)c1cccc(c1)C(=O)N1CCN(C(=O)OC(C)(C)C)[C@@H](CC(C)C)[C@@H](C1)O2` [Compound 116, tert-Butyl (16R,17S)-12-(2,6-dimethylphenyl)-17-(2-methylpropyl)-2,8,8-trioxo-15-oxa-8λ^6-thia-1,9,11,18,22-pentaazatetracyclo[14.4.1.13,7.110,14]tricosa-3(23),4,6,10(22),11,13-hexaene-18-carboxylate], in series [4], the “Ent. A Max Activity (%)” value is recorded as “++ (++ is 30-60%)” and the 50% effective concentration (EC50) is below 1 µM. The same compound registered a ring closure, isolated yield in series [1] (from Cc1cccc(C)c1-c1cc(Cl)nc(NS(=O)(=O)c2cccc(C(=O)N3CCN(C(=O)OC(C)(C)C)[C@@H](CC(C)C)[C@H](O)C3)c2)n1, snar bond, NaH, 31.0 mM, 5.17 h) of 36%.
As to `Cc1cccc(C)c1-c1cc2nc(n1)NS(=O)(=O)c1cccc(c1)C(=O)N1C[C@@H](CN(C(=O)OC(C)(C)C)C[C@H]1C(C)C)O2` [Compound 124, tert-Butyl (16S,20R)-12-(2,6-dimethylphenyl)-2,8,8-trioxo-20-(propan-2-yl)-15-oxa-8λ^6-thia-1,9,11,18,22-pentaazatetracyclo[14.4.1.13,7.110,14]tricosa-3(23),4,6,10(22),11,13-hexaene-18-carboxylate], in series [4], the “Ent. A Max Activity (%)” value is listed as “+++ (+++ is >600%)” and the 50% effective concentration (EC50) is below 1 µM. This compound also came in with a ring closure, isolated yield in series [1] (from Cc1cccc(C)c1-c1cc(Cl)nc(NS(=O)(=O)c2cccc(C(=O)N3C[C@H](O)CN(C(=O)OC(C)(C)C)C[C@H]3C(C)C)c2)n1, snar bond, NaH, 30.5 mM, 3.17 h) of 35%.
Turning to `Cc1cccc(C)c1-c1cc2nc(n1)NS(=O)(=O)c1cccc(c1)C(=O)N1C[C@@H](CN(C(=O)OC(C)(C)C)C[C@@H]1CCC(C)C)O2` [Compound 129, tert-Butyl (16S,20S)-12-(2,6-dimethylphenyl)-20-(3-methylbutyl)-2,8,8-trioxo-15-oxa-8λ^6-thia-1,9,11,18,22-pentaazatetracyclo[14.4.1.13,7.110,14]tricosa-3(23),4,6,10(22),11,13-hexaene-18-carboxylate], in series [4], the “Ent. A Max Activity (%)” value was “++ (++ is 30-60%)” and the EC50 was below 1 µM. In series [1] (from Cc1cccc(C)c1-c1cc(Cl)nc(NS(=O)(=O)c2cccc(C(=O)N3C[C@H](O)CN(C(=O)OC(C)(C)C)C[C@@H]3CCC(C)C)c2)n1, snar bond, NaH, 29.8 mM, 3.67 h), this compound came in with a ring closure, isolated yield of 53%.
As to `Cc1cccc(C)c1-c1cc2nc(n1)NS(=O)(=O)c1cccc(c1)C(=O)N1C[C@@H](CN(C(=O)OC(C)(C)C)C[C@@H]1C(C)C)O2` [Compound 132, tert-Butyl (16S,20S)-12-(2,6-dimethylphenyl)-2,8,8-trioxo-20-(propan-2-yl)-15-oxa-8λ^6-thia-1,9,11,18,22-pentaazatetracyclo[14.4.1.13,7.110,14]tricosa-3(23),4,6,10(22),11,13-hexaene-18-carboxylate], in series [4], the “Ent. A Max Activity (%)” value was “++ (++ is 30-60%)” and the concentration giving a half-maximal response (EC50) is below 1 µM. The compound further showed a ring closure, isolated yield in series [1] (from Cc1cccc(C)c1-c1cc(Cl)nc(NS(=O)(=O)c2cccc(C(=O)N3C[C@H](O)CN(C(=O)OC(C)(C)C)C[C@@H]3C(C)C)c2)n1, snar bond, NaH, 29.4 mM, 3.17 h) of 46%.
On to `Cc1cccc(C)c1-c1cc2nc(n1)NS(=O)(=O)c1cccc(c1)C(=O)N1C[C@@H](CN(C(=O)OC(C)(C)C)C[C@@H]1CC(C)(C)C)O2` [Compound 134, tert-Butyl (16S,20S)-12-(2,6-dimethylphenyl)-20-(2,2-dimethylpropyl)-2,8,8-trioxo-15-oxa-8λ^6-thia-1,9,11,18,22-pentaazatetracyclo[14.4.1.13,7.110,14]tricosa-3(23),4,6,10(22),11,13-hexaene-18-carboxylate], for which, in series [4], the “Ent. A Max Activity (%)” value is “++ (++ is 30-60%)” and the 50% effective concentration (EC50) was below 1 µM. This compound registered a ring closure, isolated yield in series [1] (from Cc1cccc(C)c1-c1cc(O[C@H]2CN[C@@H](CC(C)(C)C)CN(C(=O)OC(C)(C)C)C2)nc(NS(=O)(=O)c2cccc(C(=O)O)c2)n1, amide bond, HATU/DIEA, 29.2 mM, 25.0 °C, 0.33 h) of 57%.
Take `Cc1cccc(C)c1-c1cc2nc(n1)NS(=O)(=O)c1cccc(c1)C(=O)N1CC3CN(Cc4ccccc4)CC3(C1)O2` (stereo not shown) [Compound 210, 20-Benzyl-5-(2,6-dimethylphenyl)-2-oxa-9λ^6-thia-6,8,16,20,24-pentaazapentacyclo[14.5.1.13,7.110,14.01,18]tetracosa-3(24),4,6,10,12,14(23)-hexaene-9,9,15-trione]: in series [4], the “Ent. A Max Activity (%)” value is given as “+++ (+++ is >600%)” and the EC50 is below 1 µM. In series [1] (from Cc1cccc(C)c1-c1cc(Cl)nc(NS(=O)(=O)c2cccc(C(=O)N3CC4CN(Cc5ccccc5)CC4(O)C3)c2)n1, snar bond, NaH, 33.1 mM, 25.0 °C, 24.0 h), the ring closure, isolated yield turned out to be 26%.
Turning to `Cc1cccc(C)c1-c1cc2nc(n1)NS(=O)(=O)c1cccc(c1)C(=O)N1C[C@@H](CCC1CC(C)C)O2` (stereo partly drawn) [Compound 234, (3R)-18-(2,6-Dimethylphenyl)-6-(2-methylpropyl)-2-oxa-14λ^6-thia-7,15,17,20-tetraazatetracyclo[14.3.1.13,7.19,13]docosa-1(20),9(21),10,12,16,18-hexaene-8,14,14-trione], in series [3], the “Ent. B Max Activity (%)” value is “+++ (+++ is >600%)” and the EC50 is below 1 µM. Besides, in series [1] (from Cc1cccc(C)c1-c1cc(Cl)nc(NS(=O)(=O)c2cccc(C(=O)N3C[C@H](O)CCC3CC(C)C)c2)n1, snar bond, NaH, 11.6 mM, 25.0 °C, 16.0 h), the ring closure, isolated yield is 38%.
